# Source: patent US4774230A, “Glucuronic acid derivatives of opioid antagonists” (Ivax Laboratories, Inc., priority 1988, dated 1988)
# Where a name gives a salt, the structure may show the parent alone.
# Tests used:
# intestinal transit = experiment: charcoal meal assay (gastrointestinal motility), alleviation of morphine-induced hypomotility; assay type: in vivo, mice; settings: for effect on intestinal transit in the absence of morphine: no morphine, groups 4 and 6; for protection of the intestine against the depressant effect of morphine / percentage of intestine traveled compared with group 1 (no morphine): with morphine; for protection of the intestine against the depressant effect of morphine: groups 5 and 7; for percentage of intestine traveled compared with group 1 (no morphine): groups 5 and 7 vs group 1
# Procedure: Summary of the Results of the Charcoal Meal Assay^a
# (Gastrointestial Motility) in Mice Given Nalmefene HCl
# and Nalmefene-β-D-Glucuronide
# ^b The first vehicle or drug listed under Treatment was given 30
# minutes before the second vehicle or drug listed. The results were
# determined 30 min later. All treatments are p.o. and given in a volume of
# 0.3 ml. Doses were 10 mg/kg for morphine, 15 mg/kg or 2.9 ×
# [1] = system: opioid-dependant animals (central nervous system); experiment: Rapid Quantitative In Vivo Assay for Narcotic Antagonist (skin tail temperature rise, CNS withdrawal sign); settings: FIG. 2; injection of 1000 μg/kg
# From the text: The Rapid Quantitative In Vivo Assay for Narcotic Antagonist of Katovich et al. (Substance and Alcohol Actions/Misuse, vol 5: 87095, 1984) was used. This assay is based on the extreme sensitivity of opioid-dependant animals to narcotic antagonists. Injection of these animals with a narcotic antagonist produces severe central nervous system withdrawal signs. One of these signs is an abrupt rise in the skin temperature of the tail.
# [2] = absorption and distribution of ^14 C labelled nalmefene glucuronide after oral administration; assay type: in vivo, rats
# From the text: Therefore the glucuronide of an opioid antagonist provides a means of preventing narcotic-induced intestinal hypomotility without interfering with central nervous system effects of narcotics, such as analgesia.
# [3] = analysis of blood, urine and feces after oral nalmefene (free nalmefene versus nalmefene glucuronide); assay type: in vivo, rats; settings: oral administration
# From the text: Such a high degree of biotransformation is common for this type of drug.
# constipation = settings: patients not exposed to an exogenous opioid; Kreek et al., Lancet 1983; cited from earlier work
smiles,measurement,setting,value
CN1CC[C@]23c4c5ccc(O)c4O[C@H]2[C@@H](O)C=C[C@H]3[C@H]1C5 [Morphine],Percent Meal Traveled ± S.E.M.,"intestinal transit; Group 2: Saline + Morphine, morphine 10 mg/kg p.o. given 30 min after saline, N = 8, significantly different (p < 0.05) from Saline + Saline controls",28 ± 2%
same,Percent Meal Traveled ± S.E.M.,"intestinal transit; Group 3: Morphine + Saline, morphine 10 mg/kg p.o. given 30 min before saline, N = 8, p < 0.05 vs Saline + Saline, no difference vs Saline + Morphine",31 ± 3%
same,reduction of the percentage of the intestine traveled,"intestinal transit; morphine, groups 2 and 3",reduced the percentage of the intestine traveled by more than half
C=C1CC[C@@]2(O)[C@H]3Cc4ccc(O)c5c4[C@@]2(CCN3CC2CC2)[C@H]1O5 [Nalmefene HCl],Percent Meal Traveled ± S.E.M.,"intestinal transit; Group 6: Saline + Nalmefene HCl, 2.9 × 10^-6 M/kg p.o., N = 8",63 ± 2%
same,Percent Meal Traveled ± S.E.M.,"intestinal transit; Group 7: Morphine (10 mg/kg p.o., 30 min before) + Nalmefene HCl 2.9 × 10^-6 M/kg p.o., N = 5, no difference vs Saline + Saline, p < 0.05 vs Morphine + Saline",66 ± 14%
"C=C1CC[C@@]2(O)[C@H]3Cc4ccc(O[C@@H]5O[C@H](C(=O)O)[C@@H](O)[C@H](O)[C@H]5O)c5c4[C@@]2(CCN3CC2CC2)[C@H]1O5 [nalmefene glucuronide, nalmefene-3β-D-glucuronide]",Percent Meal Traveled ± S.E.M.,"intestinal transit; Group 4: Saline + Nalmefene Glucuronide, 15 mg/kg or 2.9 × 10^-6 M/kg p.o., N = 8, no significant difference vs Saline + Saline",66 ± 3%
same,Percent Meal Traveled ± S.E.M.,"intestinal transit; Group 5: Morphine (10 mg/kg p.o., 30 min before) + Nalmefene Glucuronide 15 mg/kg or 2.9 × 10^-6 M/kg p.o., N = 5, no difference vs Saline + Saline, p < 0.05 vs Morphine + Saline",58 ± 12%
same,effect on intestinal transit in the absence of morphine,intestinal transit,neither nalmefene (group 6) nor nalmefene glucuronide (group 4) had any significant effect
same,effectiveness against morphine-induced intestinal hypomotility compared with nalmefene,intestinal transit; vs nalmefene,as effective as nalmefene
same,protection of the intestine against the depressant effect of morphine,intestinal transit,protected the intestine against the depressant effect of morphine
same,percentage of intestine traveled compared with group 1 (no morphine),intestinal transit,not significantly less than in the group (group 1) where no morphine was present
same,effect on skin tail temperature,[1],no effect
same,form of the drug in the cecum,[2]; 2 hours after oral dosing,almost exclusively free nalmefene
same,part of the dose present in the small intestine still as nalmefene glucuronide,[2]; 2 hours after oral dosing,about 85%
same,part of the dose which had reached the cecum,[2]; 2 hours after oral dosing,2-3%
same,radioactivity in plasma,[2]; 2 hours after oral dosing,No radioactivity could be detected in plasma
same,absorption following oral administration,"[2]; ^14 C label, oral doses as high as 40 mg/kg",not absorbed to any measurable extent
"C=C1CC[C@@]2(O)[C@H]3Cc4ccc(O)c5c4[C@@]2(CCN3CC2CC2)[C@H]1O5 [nalmefene, 6-methylene-6-desoxy-N-cyclopropylmethyl-14-hydroxydihydronormorphine]",effect on intestinal transit in the absence of morphine,intestinal transit,neither nalmefene (group 6) nor nalmefene glucuronide (group 4) had any significant effect
same,protection of the intestine against the depressant effect of morphine,intestinal transit,protected the intestine against the depressant effect of morphine
same,percentage of intestine traveled compared with group 1 (no morphine),intestinal transit,not significantly less than in the group (group 1) where no morphine was present
same,"biotransformation by ""first-pass"" metabolism",[3],almost totally biotransformed
C=CCN1CC[C@]23c4c5ccc(O)c4O[C@H]2C(=O)CC[C@@]3(O)[C@H]1C5 [naloxone],relief of constipation,constipation,relieves constipation
